Laboratory results from patent US20160362416A1, “ANTIVIRAL COMPOUNDS” (Gilead Sciences, Inc., priority 2012, published 2016).
pEC50: −log10 of the molar value.

Key:
[1] = test system: stable HCV 1a RLuc replicon cells (genotype 1a H77 replicon); assay: HCV genotype 1a RLuc replicon reporter assay; format: cell-based; settings: Hepatitis C virus; stable genotype 1a H77 RLuc replicon cells, 72 hours
Protocol: (§1) Evaluation of cell-based anti-HCV activity: Antiviral potency (EC50) was determined using a Renilla luciferase (RLuc)-based HCV replicon reporter assay. To perform the assay for genotype 1 and 2a JFH-1, stable HCV 1a RLuc replicon cells (harboring a dicistronic genotype 1a H77 replicon that encodes a RLuc reporter), stable HCV lb RLuc replicon cells (harboring a dicistronic genotype 1b Conl replicon that encodes a RLuc reporter), or stable HCV 2a JFH-1 Rluc replicon cells (harboring a dicistronic genotype 2a JFH-1 replicon that encodes a RLuc reporter; with L31 present in NS5A) were dispensed into 384-well plates for EC50 assays. To perform the assay for genotype 2a (with M31 present in NS5A) or 2b, NS5A chimeric genotype 2a JFH-1 replicons that encodes a RLuc-Neo reporter and either genotype 2a J6 strain NS5A gene or genotype 2b MD2b-1 strain NS5A gene (both with M31 present) respectively, were either transiently transfected (t) into Huh-Lunet cells or were established as stably replicating replicon cells (s) is provided. Either cells were dispensed into 384-well plates for EC50 assays. To perform the assay for genotype 3 and 4, NS5A chimeric genotype 1b Conl replicons that encodes a Pi-RLuc reporter and either genotype 3a S52 strain NS5A gene or genotype 4a ED43 strain NS5A gene respectively, were transiently transfected (t) into Huh-Lunet cells, which were subsequently dispensed into 384-well plates. Compounds were dissolved in DMSO at a concentration of 10 mM and diluted in DMSO either manually or using an automated pipeting instrument. Serially 3-fold diluted compounds were either manually mixed with cell culture media and added to the seeded cells or directly added to the cells using an automated instrument. DMSO was used as a negative (solvent; no inhibition) control, and the protease inhibitor ITMN-191 was included at a concentration >100×EC50 as a positive control. 72 hours later, cells were lysed and Renilla luciferase activity quantified as recommended by the manufacturer (Promega-Madison, Wis.). Non-linear regression was performed to calculate EC50 values.

[2] = test system: Y93H in genotype 1a NS5A replicon; assay: Resistance mutant replicon assay, genotype 1a NS5A Y93H; format: cell-based, HCV; settings: Hepatitis C virus, read-out: 1a Y93H (nM)
Protocol: as §1
(§2) To determine the antiviral potency (EC50) against resistance mutants, resistance mutations, including M28T, Q30R, Q30H, Q30E, L31M, Y93C, Y93H, and Y93N in genotype 1a NS5A, Y93H and L31V/Y93H in genotype 1b NS5A, and Y93H for in genotype 3a NS5A, were introduced individually into either 1a Pi-Rluc or 1b Pi-Rluc replicons by site directed mutagenesis. Replicon RNA of each resistant mutant was transiently transfected into Huh-7-derived cured-51 cells and antiviral potency was determined on these transfected cells as described above.

[3] = test system: NS5A chimeric genotype 1b Con1 replicon with genotype 3a S52 strain NS5A gene; assay: HCV genotype 3a NS5A chimeric replicon assay; format: cell-based; settings: Hepatitis C virus, 72 h, read-out: 3a (nM)
Protocol: as §1

[4] = test system: stable HCV 1b RLuc replicon cells (genotype 1b Con1 replicon); assay: HCV genotype 1b RLuc replicon reporter assay; format: cell-based; settings: Hepatitis C virus; stable genotype 1b Con1 RLuc replicon cells, 72 hours
Protocol: as §1

[5] = test system: stable HCV 2a JFH-1 Rluc replicon cells (L31 present in NS5A); assay: HCV genotype 2a JFH-1 RLuc replicon reporter assay; format: cell-based; settings: Hepatitis C virus, 72 h, read-out: 2a JFH (nM)
Protocol: as §1

[6] = test system: NS5A chimeric genotype 2a JFH-1 replicon with genotype 2b MD2b-1 strain NS5A gene (M31); assay: HCV genotype 2b NS5A chimeric replicon assay, stable (s); format: cell-based; settings: Hepatitis C virus, 72 h, read-out: 2b (s) (nM)
Protocol: as §1

[7] = test system: Y93H in genotype 3a NS5A replicon; assay: Resistance mutant replicon assay, genotype 3a NS5A Y93H; format: cell-based, HCV; settings: Hepatitis C virus, read-out: 3a Y93H (nM)
Protocol: as §1, §2

[8] = test system: NS5A chimeric genotype 2a JFH-1 replicon with genotype 2a J6 strain NS5A gene (M31); assay: HCV genotype 2a J6 NS5A chimeric replicon assay, transient (t); format: cell-based; settings: Hepatitis C virus, 72 h, read-out: 2a J6 (t) (nM)
Protocol: as §1

[9] = test system: Y93N in genotype 1a NS5A replicon; assay: Resistance mutant replicon assay, genotype 1a NS5A Y93N; format: cell-based, HCV; settings: Hepatitis C virus, read-out: 1a Y93N (nM)
Protocol: as §1, §2

[10] = test system: NS5A chimeric genotype 1b Con1 replicon with genotype 4a ED43 strain NS5A gene; assay: HCV genotype 4a NS5A chimeric replicon assay; format: cell-based; settings: Hepatitis C virus, 72 h, read-out: 4a (s) (nM)
Protocol: as §1, with “[…],” for “were transiently transfected (t) into Huh-Lunet cells,”

| SMILES | pEC50 [1] | EC50 [2] | EC50 [3] | pEC50 [4] | EC50 [5] | EC50 [6] | EC50 [7] | EC50 [8] | EC50 [9] | EC50 [10] |
| --- | --- | --- | --- | --- | --- | --- | --- | --- | --- | --- |
| COC(=O)N[C@H](C(=O)N1[C@H](c2nc3ccc4cc5c(cc4c3[nH]2)OCc2cc(-c3cnc([C@@H]4CC[C@H](C)N4C(=O)[C@@H](NC(=O)OC)C4C[C@@H](C)O[C@H](C)C4)[nH]3)ccc2-5)C[C@@H]2CCC[C@@H]21)C(C)C (stereo partly drawn) [Example BI, methyl{(2S)-1-[(2S,3aS,6aS)-2-(9-{2-[(2S,5S)-1-{(2S)-2-[(2R,6R)-2,6-dimethyltetrahydro-2H-pyran-4-yl]-2-[(methoxycarbonyl)amino]acetyl}-5-methylpyrrolidin-2-yl]-1H-imidazol-5-yl}-1,11-dihydroisochromeno[4′,3′:6,7]naphtho[1,2-d]imidazol-2-yl)hexahydrocyclopenta[b]pyrrol-1(2H)-yl]-3-methyl-1-oxobutan-2-yl}carbamate] | 10.92 | 0.184 nM | 0.017 nM | 10.62 | 0.011 nM | 0.033 nM | 3.45 nM | 0.022 nM | 0.466 nM | 0.011 nM |
| COC(=O)N[C@H](C(=O)N1[C@@H](C)CC[C@H]1c1ncc(-c2ccc3c(c2)COc2cc4c(cc2-3)CCc2nc([C@@H]3CC[C@H](C)N3C(=O)[C@@H](NC(=O)OC)C3C[C@@H](C)O[C@H](C)C3)[nH]c2-4)[nH]1)C1C[C@@H](C)O[C@H](C)C1 (stereo partly drawn) [Example BF, methyl {(1S)-1-[(2R,6R)-2,6-dimethyltetrahydro-2H-pyran-4-yl]-2-[(2S,5S)-2-(9-{2-[(2S,5S)-1-{(2S)-2-[(2R,6R)-2,6-dimethyltetrahydro-2H-pyran-4-yl]-2-[(methoxycarbonyl)amino]acetyl}-5-methylpyrrolidin-2-yl]-1H-imidazol-5-yl}-1,4,5,11-tetrahydroisochromeno[4′,3′:6,7]naphtho[1,2-d]imidazol-2-yl)-5-methylpyrrolidin-1-yl]-2-oxoethyl}carbamate] | 10.32 | 0.035 nM | 0.065 nM | 10.31 | 0.021 nM | 0.042 nM | 0.365 nM | 0.035 nM | 0.125 nM | 0.025 nM |
| COC(=O)N[C@H](C(=O)N1[C@@H](c2nc3ccc4cc5c(cc4c3[nH]2)OCc2cc(-c3cnc([C@@H]4C[C@H](C)[C@H](C)N4C(=O)[C@@H](NC(=O)OC)C4C[C@@H](C)O[C@H](C)C4)[nH]3)ccc2-5)C[C@@H](C)[C@H]1C)C1C[C@@H](C)O[C@H](C)C1 (stereo partly drawn) [Example BA, Methyl {(1S)-1-[(2R,6R)-2,6-dimethyltetrahydro-2H-pyran-4-yl]-2-[(2R,3R,5R)-5-(9-{2-[(2S,4S,5S)-1-{(2S)-2-[(2R,6R)-2,6-dimethyltetrahydro-2H-pyran-4-yl]-2-[(methoxycarbonyl)amino]acetyl}-4,5-dimethylpyrrolidin-2-yl]-1H-imidazol-5-yl}-1,11-dihydroisochromeno[4′,3′:6,7]naphtho[1,2-d]imidazol-2-yl)-2,3-dimethylpyrrolidin-1-yl]-2-oxoethyl}carbamate] | 9.77 | 0.359 nM | 0.231 nM | 10.21 | 0.086 nM | 0.202 nM | 40.6 nM |  | 0.496 nM | 0.108 nM |
| CC[C@H](C)[C@H](NC(=O)OC)C(=O)N1[C@H](c2ncc(-c3ccc4c(c3)COc3cc5c(ccc6nc([C@@H]7CC[C@H](C)N7C(=O)[C@@H](NC(=O)OC)C7C[C@@H](C)O[C@H](C)C7)[nH]c65)cc3-4)[nH]2)C[C@@H]2CCC[C@@H]21 (stereo partly drawn) [Example BG, methyl{(2S,3S)-1-[(2S,3aS,6aS)-2-(5-{2-[(2S,5S)-1-{(2S)-2-[(2R,6R)-2,6-dimethyltetrahydro-2H-pyran-4-yl]-2-[(methoxycarbonyl)amino]acetyl}-5-methylpyrrolidin-2-yl]-1,11-dihydroisochromeno[4′,3′:6,7]naphtho[1,2-d]imidazol-9-yl}-1H-imidazol-2-yl)hexahydrocyclopenta[b]pyrrol-1(2H)-yl]-3-methyl-1-oxopentan-2-yl}carbamate] | 10.70 | 0.364 nM | 0.028 nM | 10.74 | 0.017 nM | 0.039 nM | 5.58 nM | 0.045 nM | 0.883 nM | 0.017 nM |
| COC[C@H]1C[C@@H](c2nc3ccc4cc5c(cc4c3[nH]2)OCc2cc(-c3cnc([C@@H]4CC[C@H](C)N4C(=O)[C@@H](NC(=O)OC)C4C[C@@H](C)O[C@H](C)C4)[nH]3)ccc2-5)N(C(=O)[C@@H](NC(=O)OC)C2C[C@@H](C)O[C@H](C)C2)C1 (stereo partly drawn) [Example BD, methyl {(1S)-1-[(2R,6R)-2,6-dimethyltetrahydro-2H-pyran-4-yl]-2-[(2S,5S)-2-(5-{2-[(2S,4S)-1-{(2S)-2-[(2R,6R)-2,6-dimethyltetrahydro-2H-pyran-4-yl]-2-[(methoxycarbonyl)amino]acetyl}-4-methoxymethylpyrrolidin-2-yl]-1,11-dihydroisochromeno[4′,3′:6,7]naphtho[1,2-d]imidazol-9-yl}-1H-imidazol-2-yl)-5-methylpyrrolidin-1-yl]-2-oxoethyl}carbamate] | 10.22 | 0.088 nM | 0.072 nM | 10.02 | 0.017 nM | 0.026 nM | 0.814 nM |  | 0.104 nM | 0.029 nM |
